Source: publication PMC10410440, “Preclinical PK investigation of a novel IDO1/TDO dual inhibitor—SHR9146 in mouse plasma and tissues by LC-MS/MS” (Frontiers in Oncology, 2023)
“And” between values parts separate entries of the source, which are not always exact repeats. Equal entries are not always repeated. Where two headings read alike, the source gives them in different places.

Assay: Tissue distribution of SHR9146 in mice after oral gavage of 40 mg/kg
Assay type: in vivo, ICR mice
Conditions: female, 40 mg/kg oral gavage; for concentration at 1 h / concentration at 3 h / concentration at 6 h / concentration at 24 h: ICR, mouse, po
Description: ICR mice with body weight 16–26 g were supplied by Shanghai Lingchang Biotechnology Co., Ltd. (animal breeding license number SCXK (Shanghai) 2013-0018) and housed at Shanghai Institute of Materia Medica, Chinese Academy of Sciences [animal use license number SYXK (Shanghai) 2015-0027]. The mice used in this study were fasted overnight for 12 h but had free access to water. Food was supplied 4 h post-dose. All experiments in this study were conducted in accordance with the Guidelines for the Care and Use of Laboratory Animals of Shanghai Institute of Materia Medica, Chinese Academy of Sciences.
Another set of 30 mice were randomly assigned into five groups with equal numbers, males and females, for tissue distribution study with oral gavage at a single dose of 40 mg/kg at predetermined different time points: pre-dose and post dose at 1, 3, 6, and 24 h, respectively. The whole brain, heart, liver, spleen, lung, kidney, bladder, pancreas, testis, ovary, uterus, stomach, small intestine, adrenal gland, skin, skeletal muscle, thyroid gland, and abdominal fat tissues as well as the whole blood and plasma samples were harvested. Tissue samples were washed with 0.9% sodium chloride solution to remove the residual blood or contents, blotted on a filter paper, and stored at −70°C prior to the analysis.
Protein precipitation was selected for the pretreatment of both the plasma and the tissue homogenate prepared after thawing at room temperature, cut into pieces, and homogenized with a quintuple methanol–water mixture (1:1, v/v) for each tissue sample.
Briefly as follows, an aliquot of 25-μL plasma or tissue homogenate was spiked with 100 μL of internal standard solution (1 μg/mL for plasma, 0.2 μg/mL for tissue homogenate) and 300 μL of methanol added and vortex mixed for 60 s. The mixture was then centrifuged at 14,000 rpm at 4°C for 5.0 min, and the supernatant was diluted with methanol–water (4:1, v/v) in a ratio of 1:9 for the plasma or 1:1 for the tissue homogenate, and 5 μL of the resulting solution was injected for the LC-MS/MS analysis.
After oral administration of 40 mg/kg SHR9146, samples in different tissues at predetermined time points (pre-drug administration, post-drug administration at 1, 3, 6, and 24 h) were collected and prepared for the analysis. The drug concentrations of SHR9146 (μg/g or μg/mL) were determined for each mouse, and the mean and standard deviation were further obtained (Table S7).

[1] = 24 h, individual mice, 40 mg/kg

OCCn1cc(-c2ccc(N3CCC([C@H]4c5c(F)cccc5-c5cncn54)CC3)cc2)cn1 [SHR9146]
SHR9146 concentration in Bladder (1 h, individual mice, 40 mg/kg): 21.036 µg/g and 16.223 µg/g
SHR9146 concentration in Kidney (1 h, individual mice, 40 mg/kg): 18.490 µg/g and 14.219 µg/g
SHR9146 concentration in Liver (1 h, individual mice, 40 mg/kg): 26.622 µg/g and 23.393 µg/g
SHR9146 concentration in Lung (1 h, individual mice, 40 mg/kg): 20.029 µg/g and 15.217 µg/g
SHR9146 concentration in Pancreas (1 h, individual mice, 40 mg/kg): 22.508 µg/g and 15.532 µg/g
SHR9146 concentration in Small intestine (1 h, individual mice, 40 mg/kg): 22.755 µg/g and 23.199 µg/g
SHR9146 concentration in Bladder (3 h, individual mice, 40 mg/kg): 10.878 µg/g and 14.604 µg/g and 5.984 µg/g
SHR9146 concentration in Kidney (3 h, individual mice, 40 mg/kg): 12.786 µg/g and 17.400 µg/g and 8.011 µg/g
SHR9146 concentration in Liver (3 h, individual mice, 40 mg/kg): 20.374 µg/g and 27.066 µg/g and 11.815 µg/g
SHR9146 concentration in Lung (3 h, individual mice, 40 mg/kg): 12.019 µg/g and 16.499 µg/g and 48.938 µg/g
SHR9146 concentration in Pancreas (3 h, individual mice, 40 mg/kg): 13.466 µg/g and 17.374 µg/g and 6.520 µg/g
SHR9146 concentration in Small intestine (3 h, individual mice, 40 mg/kg): 22.446 µg/g and 12.038 µg/g
SHR9146 concentration in Adrenal gland (6 h, individual mice, 40 mg/kg): 4.009 µg/g and 0.427 µg/g and 1.219 µg/g
SHR9146 concentration in Bladder (6 h, individual mice, 40 mg/kg): 1.685 μg/g and BLQ and 0.201 μg/g
SHR9146 concentration in Brain (6 h, individual mice, 40 mg/kg): BLQ
SHR9146 concentration in Kidney (6 h, individual mice, 40 mg/kg): 3.007 µg/g and 0.546 µg/g and 0.744 µg/g
SHR9146 concentration in Liver (6 h, individual mice, 40 mg/kg): 4.132 µg/g and 0.621 µg/g and 1.090 µg/g
SHR9146 concentration in Lung (6 h, individual mice, 40 mg/kg): 2.446 µg/g and 0.717 µg/g and 0.984 µg/g
SHR9146 concentration in Ovary (6 h, individual mice, 40 mg/kg): BLQ
SHR9146 concentration in Pancreas (6 h, individual mice, 40 mg/kg): 1.674 µg/g and 0.089 µg/g and 0.150 µg/g
SHR9146 concentration in Skeletal muscle (6 h, individual mice, 40 mg/kg): BLQ
SHR9146 concentration in Small intestine (6 h, individual mice, 40 mg/kg): 1.815 µg/g and 0.395 µg/g and 0.288 µg/g
SHR9146 concentration in Spleen (6 h, individual mice, 40 mg/kg): BLQ
SHR9146 concentration in Uterus (6 h, individual mice, 40 mg/kg): BLQ
SHR9146 concentration in Whole blood (6 h, individual mice, 40 mg/kg): BLQ
SHR9146 concentration in Abdominal fat (24 h, individual mice): BLQ
SHR9146 concentration in Bladder (24 h, individual mice): BLQ
SHR9146 concentration in Brain (24 h, individual mice): BLQ
SHR9146 concentration in Heart (24 h, individual mice): BLQ
SHR9146 concentration in Kidney (24 h, individual mice): BLQ
SHR9146 concentration in Ovary (24 h, individual mice): BLQ
SHR9146 concentration in Pancreas (24 h, individual mice): BLQ
SHR9146 concentration in Plasma (24 h, individual mice): BLQ
SHR9146 concentration in Skeletal muscle (24 h, individual mice): BLQ
SHR9146 concentration in Skin (24 h, individual mice): BLQ
SHR9146 concentration in Small intestine (24 h, individual mice): BLQ
SHR9146 concentration in Spleen (24 h, individual mice): BLQ
SHR9146 concentration in Uterus (24 h, individual mice): BLQ
SHR9146 concentration in Whole blood (24 h, individual mice): BLQ
SHR9146 concentration in thyroid gland (24 h, individual mice): BLQ
SHR9146 concentration in Adrenal gland [1]: 0.185 µg/g
SHR9146 concentration in Liver [1]: BLQ and 0.058 μg/g
SHR9146 concentration in Lung [1]: 0.151 µg/g and 0.191 µg/g
concentration at 1 h (abdominal fat, 40 mg/kg, 1 h, Mean (n=3), read-out: SHR9146 concentration in Abdominal fat): 13500 ng/g
concentration at 1 h (abdominal fat, 40 mg/kg, 1 h, individual mice, read-out: SHR9146 concentration in Abdominal fat): 11600 ng/g
concentration at 3 h (abdominal fat, 40 mg/kg, 3 h, Mean (n=3), read-out: SHR9146 concentration in Abdominal fat): 8930 ng/g
concentration at 6 h (abdominal fat, 40 mg/kg, 6 h, Mean (n=3), read-out: SHR9146 concentration in Abdominal fat): 416 ng/g
concentration at 1 h (adrenal gland, 40 mg/kg, 1 h, Mean (n=3), read-out: SHR9146 concentration in Adrenal gland): 36600 ng/g
concentration at 1 h (adrenal gland, 40 mg/kg, 1 h, individual mice, read-out: SHR9146 concentration in Adrenal gland): 31300 ng/g
concentration at 3 h (adrenal gland, 40 mg/kg, 3 h, Mean (n=3), read-out: SHR9146 concentration in Adrenal gland): 27800 ng/g
concentration at 6 h (adrenal gland, 40 mg/kg, 6 h, Mean (n=3), read-out: SHR9146 concentration in Adrenal gland): 1880 ng/g
concentration at 24 h (adrenal gland, 40 mg/kg, 24 h, Mean (n=3), read-out: SHR9146 concentration in Adrenal gland): 195 ng/g
concentration at 24 h (adrenal gland, 40 mg/kg, 24 h, individual mice, read-out: SHR9146 concentration in Adrenal gland): 214 ng/g
concentration at 1 h (bladder, 40 mg/kg, 1 h, Mean (n=3), read-out: SHR9146 concentration in Bladder): 16800 ng/g
concentration at 1 h (bladder, 40 mg/kg, 1 h, individual mice, read-out: SHR9146 concentration in Bladder): 13200 ng/g
concentration at 3 h (bladder, 40 mg/kg, 3 h, Mean (n=3), read-out: SHR9146 concentration in Bladder): 10500 ng/g
concentration at 6 h (bladder, 40 mg/kg, 6 h, Mean (n=3), read-out: SHR9146 concentration in Bladder): 629 ng/g
concentration at 1 h (brain, 40 mg/kg, 1 h, Mean (n=3), read-out: SHR9146 concentration in Brain): 2370 ng/g
concentration at 1 h (brain, 40 mg/kg, 1 h, individual mice, read-out: SHR9146 concentration in Brain): 2190 ng/g
concentration at 3 h (brain, 40 mg/kg, 3 h, Mean (n=3), read-out: SHR9146 concentration in Brain): 1560 ng/g
concentration at 6 h (brain, 40 mg/kg, 6 h, Mean (n=3), read-out: SHR9146 concentration in Brain): 87 ng/g
concentration at 6 h (brain, 40 mg/kg, 6 h, individual mice, read-out: SHR9146 concentration in Brain): 261 ng/g
concentration at 1 h (heart, 40 mg/kg, 1 h, Mean (n=3), read-out: SHR9146 concentration in Heart): 9540 ng/g
concentration at 1 h (heart, 40 mg/kg, 1 h, individual mice, read-out: SHR9146 concentration in Heart): 7410 ng/g
concentration at 3 h (heart, 40 mg/kg, 3 h, Mean (n=3), read-out: SHR9146 concentration in Heart): 7040 ng/g
concentration at 6 h (heart, 40 mg/kg, 6 h, Mean (n=3), read-out: SHR9146 concentration in Heart): 334 ng/g
concentration at 1 h (kidney, 40 mg/kg, 1 h, Mean (n=3), read-out: SHR9146 concentration in Kidney): 15300 ng/g
